Experimental data from patent US11656221B2, “Methods to identify modulators of actin-binding proteins” (Regents of the University of Minnesota, priority 2019, dated 2023).
Entries after “also recorded” stand apart in the source; their conditions may differ.

Assays:
HEK293-6E cells = assay: Trypan blue cell viability assay; format: cell-based
Procedure: HEK293-6E cell viability was measured using trypan blue (0.03%) staining and a Countess Automated Cell counter (Invitrogen). Non-transfected HEK293-6E cells were spun at 100×g for 5 min at 21° C., and resuspended in 10 mL of PBS. The centrifugation and resuspension were repeated twice more. Final cell concentration was 1×10^6 cells/mL. Cells were incubated with 2% DMSO, or 3-50 μM compound (as indicated) for 3 hrs at room temperature (21° C.). After addition of 100 μL of 0.06% trypan blue solution in PBS, 10 μL was loaded on a slide and injected into the cell counter, and cell viability was measured.

[1] = target: T1, Lifeact-mCherry binding to F-actin (Oryctolagus cuniculus, UniProt P68135); assay: F-actin and Lifeact-mCherry co-sedimentation assay; set-up: species or system New Zealand white rabbit (Oryctolagus cuniculus)
T1 construct: Actin was purified from acetone powder derived from the psoas muscle; made in house; host or cells: actin from rabbit psoas muscle; Lifeact-mCherry from E. coli, pE-SUMOpro
Procedure: (§1) Actin was purified from acetone powder derived from the psoas muscle of New Zealand white rabbit (Oryctolagus cuniculus). Filamentous (F)-actin was stored for up to 3 days on ice before use in binding assays. Within an hour of the binding assay, the F-actin was clarified at 100,000×g at 4° C. for 10 min prior to setting up binding assays. The L253P β-III-spectrin ABD was expressed in E. coli BL21(DE3) (Novagen). The ABD was purified and the His-SUMO tag proteolytically removed, as previously described, except size-exclusion chromatography was not performed due to the high purity of the ABD protein. Lifeact-mCherry protein was similarly prepared. A Bradford assay was performed to determine clarified F-actin and ABD protein concentrations.
(§2) F-actin and ABD binding assays were performed as previously described. In brief, binding assays used 1 μM ABD protein, 1 μM F-actin and 1-50 μM compound (as indicated) or DMSO control for a total reaction volume of 60 μL in F-buffer containing 10 mM Tris, pH 7.5, 150 mM NaCl, 0.5 mM ATP, 2 mM MgCl2, and 1 mM DTT. Following 30 min incubation at room temperature (21° C.). F-actin was pelleted using centrifugation at 100,000×g at 25° C. for 30 min. Unbound ABD in the supernatant was measured following SDS-PAGE and Coomassie blue staining in accord. In addition, control co-sedimentations assays that lacked actin were performed to test if compounds cause ABD aggregation. F-actin and Lifeact-mCherry binding assays were undertaken with 2 μM Lifeact-mCherry, 30 μM F-actin and 1-50 μM compound (as indicated) or DMSO control for a total reaction volume of 80 μL in F-buffer. For a no-actin binding control, an assay sample with no F-actin was also set up. Binding reactions were allowed to reach equilibrium at room temperature (21° C.) for 30 min and then F-actin was pelleted by centrifugation at 100,000×g at 25° C. for 30 min. The amount of unbound Lifeact-mCherry was sampled by loading 7 μL of spin supernatant on a low volume black bottom 384-well plate (Greiner). Amount of mCherry was determined by acquiring fluorescence spectrum peak intensity at ˜600 nm using a spectral unmixing plate reader (Fluorescence Innovations, Inc) equipped with a 532 nm laser (Laserglow Technologies, Ontario, Canada) for excitation, 532 nm longpass filter for emission, and PMT for emission detection. The fraction of Lifeact-mCherry bound to F-actin was determined by subtracting from one the fraction of supernatant fluorescence intensity relative to the no-actin control sample, using the following equation:
[formula] • Where Fcontrol/DMSO is the peak mCherry fluorescence of assay samples containing compound or DMSO control, and Fno-actin is the peak mCherry fluorescence of assay samples that contained no F-actin. 2.9 Trypan Blue Cell Viability Assays

[2] = target: T2, ternary complex consisting of GFP-ABD-L253P, Lifeact-mCherry, and actin (Homo sapiens, UniProt O15020, L253P); assay: Primary live-cell time-resolved FRET assay (GFP-ABD-L253P plus Lifeact-mCherry); format: cell-based; details: for effect on FRET in primary screen (Hit, 4SD threshold): LOPAC compounds 10 μM, 120 min
T2 construct: L252P β-III-spectrin (human) ABD residues 1-284; expressed in transfected cells; host or cells: HEK293-6E, pTT5 vector, transient
T2 sequence (O15020 1-284 L253P, one chain of several): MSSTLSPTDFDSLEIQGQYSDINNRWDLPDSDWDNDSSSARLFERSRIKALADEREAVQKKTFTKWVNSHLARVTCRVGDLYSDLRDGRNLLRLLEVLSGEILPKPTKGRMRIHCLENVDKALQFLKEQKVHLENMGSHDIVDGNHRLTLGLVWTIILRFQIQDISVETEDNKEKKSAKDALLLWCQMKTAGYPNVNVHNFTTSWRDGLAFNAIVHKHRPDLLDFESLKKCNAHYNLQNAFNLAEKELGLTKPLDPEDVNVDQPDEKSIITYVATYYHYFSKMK

mammalian cells = details: cited from earlier work
ABD-L253P = target: T3, ABD-L253P (Homo sapiens, UniProt O15020, L253P); assay: Sedimentation of ABD L253P without actin (aggregation); details: 10 μM
T3 construct: His-SUMO (cleaved yes); made in house; host or cells: E. coli BL21(DE3), pE-SUMOpro
T3 sequence (O15020 1-284 L253P): as the sequence (O15020 1-284 L253P, one chain of several) above
Procedure: as §2, with “equation: […]” for “equation:”
In addition to a reduction in cell viability, the primary and counter screen may be sensitive to compounds that promote ABD-L253P protein aggregation. […] Our ABD-L253P to actin co-sedimentation assay is unlikely to be sensitive to ABD aggregation, as it is set up to monitor maximal sedimentation of ABD-L253P with actin at ˜90% ABD-L253P co-sedimenting. To directly measure the impact of 10 μM Hit compounds on ABD aggregation, we repeated the ABD-actin co-sedimentation without actin present.

[3] = target: T4, ABD-L253P (L253P β-III-spectrin ABD) binding to F-actin (Homo sapiens, UniProt O15020, L253P); assay: F-actin and ABD co-sedimentation assay; details: 50 μM, 1 μM ABD, 1 μM F-actin
T4 construct: His-SUMO (cleaved yes); made in house; host or cells: E. coli BL21(DE3), pE-SUMOpro; actin from rabbit psoas muscle
T4 sequence (O15020 1-284 L253P): as the sequence (O15020 1-284 L253P, one chain of several) above
Procedure: as §1
as §2, with “F-actin and Lifeact-mCherry binding assays were undertaken with 2 μM Lifeact-mCherry, 30 μM F-actin and 1-50 μM compound (as indicated) or DMSO control for a total reaction volume of 80 μL in F-buffer. For a no-actin binding control, an assay sample with no F-actin was also set up. Binding reactions were allowed to reach equilibrium at room temperature (21° C.) for 30 min and then F-actin was pelleted by centrifugation at 100,000×g at 25° C. for 30 min. The amount of unbound Lifeact-mCherry was sampled by loading 7 μL of spin supernatant on a low volume black bottom 384-well plate (Greiner).” left out, “equation: […]” for “equation:”

[4] = target: T5, GFP-ABD-L253P and mCherry (non-specific FRET) in HEK293-6E cells (Homo sapiens, UniProt O15020, L253P); assay: Counter FRET assay, non-specific FRET (GFP-ABD-L253P plus mCherry); format: cell-based; details: 0.1% Triton X-100, cell lysis
T5 construct: L252P β-III-spectrin (human) ABD residues 1-284; expressed in transfected cells; host or cells: HEK293-6E, pTT5 vector, transient
T5 sequence (O15020 1-284 L253P): as the sequence (O15020 1-284 L253P, one chain of several) above
Procedure: At 2×10^6 cells/mL, HEK293-6E cells were transfected with GFP-ABD (2.4 μg), Lifeact-mCherry (2.4-16.8 μg), mCherry (1.2-16.8 μg), and/or pTT5 (0.8-17.6 μg) using the 293fectin protocol (Thermo Fisher Scientific) with 20 μg total DNA. The cells were harvested 24 hours later by centrifugation at 100×g for 5 min, and then washed twice with PBS. Cell viability and concentration were determined using trypan blue assay and a Countess cell counter (Invitrogen).
Using a Multidrop Combi liquid dispenser (Thermo Fisher Scientific), 10^6 cells/mL were dispersed into 1536-well and 384-well plates as 5 or 50 μL aliquots, respectively. For control and tool compound plates, 100 nL of DMSO or potential tool compound was loaded using the Mantis (Formulatrix). […] Two to three hours after sample loading, fluorescence lifetime measurements were performed using high-throughput fluorescence plate-readers provided by Photonic Pharma LLC (MN, USA), including one detecting fluorescence lifetime and another detecting fluorescence spectra, as described previously.
To develop a biosensor that monitors the binding of mutant L253P β-III-spectrin to actin filaments in live cells, a fluorescence resonance energy transfer (FRET) approach was tested. […] To measure the non-specific component to our FRET readout, we concurrently tested expression of mCherry in place of Lifeact-mCherry. […]

Compound	effect on Lifeact-mCherry binding with actin ([1]; 10 μM)	effect on FRET in primary screen (Hit, 4SD threshold) [2]	ABD L253P aggregation (pelleting without actin) (ABD-L253P)	also measured
CCCCCCCCCCCCCCCC(=O)OC(CC(=O)[O-])C[N+](C)(C)C (racemic) [palmitoyl-DL-carnitine]	decreased actin-Lifeact co-sedimentation; also recorded: reduce Lifeact-mCherry binding with actin	decrease FRET	–	effect on HEK293-6E cell viability (HEK293-6E cells; 10 μM, 3 hr incubation): dramatically reduced cell viability; also recorded: reduces HEK293-6E cell viability; reported effect on cell viability (mammalian cells): reported to reduce cell viability
CC(C)(C)c1ccc(/C=C/C(=O)Nc2ccc3c(c2)OCCO3)cc1 [AMG 9810]	–	decrease FRET	increases ABD pelleting; also recorded: promote aggregation	–
CC(C)(Sc1ccc(CCN(CCCCC2CCCCC2)C(=O)NC2CCCCC2)cc1)C(=O)O [GW7647]	decreased actin-Lifeact co-sedimentation; also recorded: reduce Lifeact-mCherry binding with actin	decrease FRET	increases ABD pelleting; also recorded: promote aggregation	effect on HEK293-6E cell viability (HEK293-6E cells; 10 μM, 3 hr incubation): dramatically reduced cell viability; also recorded: reduces HEK293-6E cell viability
O=C(O)c1cc([N+](=O)[O-])ccc1NCCCc1ccccc1 [NPPB]	decreased actin-Lifeact co-sedimentation; also recorded: reduce Lifeact-mCherry binding with actin	decrease FRET	promote aggregation	ABD L253P aggregation (pelleting without actin) (ABD-L253P; listed as NBBP): increases ABD pelleting
CCCc1c(-c2ccc(O)cc2)nn(-c2ccc(O)cc2)c1-c1ccc(O)cc1 [PPT]	–	decrease FRET	increases ABD pelleting; also recorded: promote aggregation	–
CCCCCCCC/C=C\CCCCCCCC(=O)NCc1ccc(O)c(OC)c1 [olvanil]	–	decrease FRET	increases ABD pelleting; also recorded: promote aggregation	–
[H]/N=C(/NCCCCC)N/N=C/c1c[nH]c2ccc(OC)cc12 [tegaserod]	–	–	–	decrease in cell viability (HEK293-6E cells; 50 μM, 3 hrs): 92%; effect on HEK293-6E cell viability (HEK293-6E cells; 50 μM, 3 hrs): greatly diminished cell viability; also recorded: abolishes HEK293-6E cell viability; effect on ABD-L253P binding to actin [3]: did not alter; also recorded: no significant effect; effect on Lifeact-mCherry binding with actin ([1]; 50 μM): did not alter and not; reduction of total FRET ([2]; 50 μM, HEK293-6E cells, relative to DMSO): 83%
Triton X-100	–	–	–	effect on total FRET ([2]; 0.1% Triton X-100, cell lysis): abolished; effect on non-specific FRET [4]: abolished
